# Data as given in ChEMBL document CHEMBL1201862, “PubChem BioAssay data set” (2004).
# Calls of active or inactive are those of the source.
# Experiments:
# [1] = target: T1, Low molecular weight phosphotyrosine protein phosphatase (Homo sapiens, UniProt P24666); assay type: functional; conditions: read-out: IC50_Mean;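 also: Dose-response confirmation assay measuring inhibition of LMPTP enzyme activity by fluorescence intensity read-out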
# T1 sequence (P24666 whole entry): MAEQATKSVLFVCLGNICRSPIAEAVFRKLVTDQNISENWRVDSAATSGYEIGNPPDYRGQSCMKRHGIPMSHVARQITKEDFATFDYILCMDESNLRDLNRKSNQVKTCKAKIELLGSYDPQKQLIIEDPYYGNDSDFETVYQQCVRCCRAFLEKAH
# [2] = target: T1, Low molecular weight phosphotyrosine protein phosphatase; test: inhibition of LMPTP-A enzymatic activity – biochemical, OMFP substrate, fluorescence intensity, set 2, dose response (AID 743307); assay type: functional
# [3] = target: T1, Low molecular weight phosphotyrosine protein phosphatase; test: inhibition of human LMPTP enzyme activity – biochemical, absorbance, pNPP substrate, LMPTP-A isoform, set 2, orthogonal assay, dose response (AID 743308); assay type: functional
# [4] = HIV-1 Vif–A3G interaction blockers – biochemical, TR-FRET, GST-Vif 1-94, biotin-A3G peptide, dose response retest, primary screen (AID 1117319); assay type: functional;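 also: TR-FRET signal of purified GST-Vif binding a biotinylated A3G peptide; inhibitors lower the FRET signal by blocking Vif and A3G binding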
# Large T antigen = Large T antigen (Simian virus 40, UniProt P03070); assay type: functional, Betapolyomavirus macacae;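 also: Confirmatory-stage PubChem screen for compounds that inhibit SV40 T antigen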
# [5] = target: Photoreceptor-specific nuclear receptor (Homo sapiens, UniProt Q9Y5X4); assay type: functional;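 also: potency for compounds that break the NR2E3 corepressor complex and count as activators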
# Phospholipase A2 = Phospholipase A2 (Homo sapiens, UniProt P04054); assay type: functional;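 also: confirmatory dose-response counterscreen on phospholipase A2, testing hits that came from an ultra-high-throughput screen for ATG4B inhibitors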
# Estrogen receptor beta [6] = target: T2, Estrogen receptor beta (Homo sapiens, UniProt Q92731); test: blockers of SRC-3 recruitment to ERβ – biochemical, ELISA, streptavidin-HRP readout, orthogonal assay, confirmation (AID 1060)
# [7] = target: Bifunctional protein GlmU (Mycobacterium tuberculosis, UniProt P9WMN3); test: Inhibitors of Mycobacterial Glucosamine-1-phosphate acetyl transferase (GlmU). Secondary screen.; design: species or system Mycobacterium tuberculosis H37Rv
# Estrogen receptor beta [8] = target: T2, Estrogen receptor beta
# Cysteine protease ATG4B = target: T3, Cysteine protease ATG4B (Homo sapiens, UniProt Q9Y4P1); assay type: functional;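 also: Fluorescence-based dose-response confirmation assay measuring inhibition of ATG4B activity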
# T3 sequence (Q9Y4P1 whole entry): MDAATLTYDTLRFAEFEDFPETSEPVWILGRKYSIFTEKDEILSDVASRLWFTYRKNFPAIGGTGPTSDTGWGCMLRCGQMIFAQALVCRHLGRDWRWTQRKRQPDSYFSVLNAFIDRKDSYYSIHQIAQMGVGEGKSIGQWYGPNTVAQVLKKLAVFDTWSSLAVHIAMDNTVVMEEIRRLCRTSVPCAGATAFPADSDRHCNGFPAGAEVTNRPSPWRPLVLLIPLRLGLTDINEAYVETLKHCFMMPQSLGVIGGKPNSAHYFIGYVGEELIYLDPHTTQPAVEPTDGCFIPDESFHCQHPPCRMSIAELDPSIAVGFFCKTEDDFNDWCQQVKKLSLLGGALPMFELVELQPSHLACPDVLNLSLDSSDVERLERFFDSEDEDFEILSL
# Estrogen receptor = target: T4, Estrogen receptor (Homo sapiens, UniProt P03372);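 also: potency for inhibiting coactivator peptide recruitment to the receptor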
# T4 sequence (P03372 whole entry): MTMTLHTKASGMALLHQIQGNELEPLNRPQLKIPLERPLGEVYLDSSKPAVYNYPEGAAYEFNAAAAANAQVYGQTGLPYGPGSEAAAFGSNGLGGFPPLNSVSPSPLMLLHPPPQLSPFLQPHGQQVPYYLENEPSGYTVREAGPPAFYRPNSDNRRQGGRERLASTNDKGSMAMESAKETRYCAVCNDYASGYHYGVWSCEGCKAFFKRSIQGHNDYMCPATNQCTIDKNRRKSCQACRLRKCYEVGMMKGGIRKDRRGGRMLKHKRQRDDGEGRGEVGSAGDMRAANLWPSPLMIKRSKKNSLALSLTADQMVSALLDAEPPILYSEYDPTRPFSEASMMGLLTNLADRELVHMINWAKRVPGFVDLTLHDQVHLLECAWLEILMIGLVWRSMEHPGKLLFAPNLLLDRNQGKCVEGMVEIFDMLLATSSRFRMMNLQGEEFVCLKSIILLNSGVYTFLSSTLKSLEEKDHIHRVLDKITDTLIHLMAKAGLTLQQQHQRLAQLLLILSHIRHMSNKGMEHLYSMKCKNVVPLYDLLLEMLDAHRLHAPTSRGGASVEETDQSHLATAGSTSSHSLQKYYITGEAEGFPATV
# [9] = target: Peroxisome proliferator-activated receptor gamma/Nuclear receptor corepressor 2 (Homo sapiens, UniProt P37231+Q9Y618); assay type: functional
# [10] = IC50 of Artemis nuclease activity blockers – biochemical, fluorescence intensity, dose response (AID 720701); assay type: functional;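 also: Artemis endonuclease enzyme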
# [11] = target: FAD-linked sulfhydryl oxidase ALR (Homo sapiens, UniProt P55789); test: ALR-catalysed DTT oxidation blockers – biochemical, H2O2 detection, luminescence, cherry-pick, dose response (AID 493248)
# [12] = target: E3 ubiquitin-protein ligase Mdm2 (Homo sapiens, UniProt Q00987); test: MDM2-luc reporter signal enhancers, multi-concentration potency testing, MDM2 ubiquitin-protein ligase inhibitor program, whole-cell format, luminescence detection, 384-well microplate (AID 1394); assay type: functional;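 also: MDM2 E3 inhibitors raise luminescence so EC50 is for signal enhancement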
# [13] = Luminescence Cell-Based Dose Response HTS to Identify Activators of Luciferase Translation or Activity in H4 […] Cells. [Related pubchem assays: 1829 (Project Summary), 1814 (Primary HTS)]; assay type: functional
# [14] = Luminescence Cell-Based Dose Confirmation HTS to Identify Activators of 5'UTR Stem-Loop Driven Alpha-Synuclein mRNA Translation in H4 Neuroglioblastoma Cells. [Related pubchem assays: 1829 (Project Summary), 1814 (Primary HTS)]; assay type: functional
# [15] = Luminescence Cell-Based Dose Response to Identify Activators of Luciferase Translation or Activity in H4-C Neuroglioblastoma Cells. [Related pubchem assays: 1829 (Project Summary), 1814 (Primary HTS)]; assay type: functional
# [16] = Luminescence Cell-Based Dose Response to Identify Activators of 5'UTR Stem-Loop Driven Prion Protein mRNA Translation in H4-C Neuroglioblastoma Cells. [Related pubchem assays: 1829 (Project Summary), 1814 (Primary HTS)]; assay type: functional
# [17] = target: Heat shock protein HSP 90-alpha (Homo sapiens, UniProt P07900); test: Luminescence-based dose response biochemical high throughput screening assay for inhibitors of the Heat Shock Protein 90 (HSP90). [Related pubchem assays: 1831 (Summary AID.), 1846 (Confirmation screen.), 1789 (Primary screen.)]
# [18] = Luminescence Cell-Based Dose Confirmation to Identify Activators of 5'UTR Stem-Loop Driven Alpha-Synuclein mRNA Translation in H4 Neuroglioblastoma Cells. [Related pubchem assays: 1829 (Project Summary), 1814 (Primary HTS)]; assay type: functional
# H4 = test: Luminescence Cell-Based Dose Response HTS to Identify Activators of 5'UTR Stem-Loop Driven Prion Protein mRNA Translation in H4 Neuroglioblastoma Cells. [Related pubchem assays: 1829 (Project Summary), 1814 (Primary HTS)]; assay type: functional; conditions: Homo sapiens
# [19] = target: Mitogen-activated protein kinase 10 (Homo sapiens, UniProt P53779); test: Dose response biochemical screening assay for inhibitors of c-Jun N-Terminal Kinase 3 (JNK3). [Related pubchem assays: 746 ]
# Cytochrome P450 3A4 = Cytochrome P450 3A4 (Homo sapiens, UniProt P08684);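 also: CYP3A4 tested as one member of a cytochrome P450 panel screen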
# Cytochrome P450 2D6 = Cytochrome P450 2D6 (Homo sapiens, UniProt P10635);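 also: CYP2D6 member of a cytochrome P450 panel assay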
# [20] = target: Protein-tyrosine kinase 2-beta (Homo sapiens, UniProt Q14289);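 also: potency of inhibitors of PYK2 kinase phosphorylation of poly-GT substrate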
# Vero = test: viability of Vero cells under compound – cytotoxicity control for flavivirus capping enzyme inhibitors (AID 588742); assay type: functional; conditions: Chlorocebus sabaeus
# [21] = target: RNA-editing ligase 1, mitochondrial (Trypanosoma brucei brucei, UniProt P86926); test: inhibition of trypanosome RNA editing ligase – biochemical, fluorescence, Trypanosoma brucei, dose response (AID 1117295); assay type: functional
# Leucine aminopeptidase = target: T5, Leucine aminopeptidase (Plasmodium falciparum 3D7, UniProt Q8IL11); test: P. falciparum M17LAP inhibitors, primary screen, biochemical, fluorogenic H-Leu-NHMec substrate, 1536-well (AID 1619); assay type: functional
# T5 sequence (Q8IL11 whole entry): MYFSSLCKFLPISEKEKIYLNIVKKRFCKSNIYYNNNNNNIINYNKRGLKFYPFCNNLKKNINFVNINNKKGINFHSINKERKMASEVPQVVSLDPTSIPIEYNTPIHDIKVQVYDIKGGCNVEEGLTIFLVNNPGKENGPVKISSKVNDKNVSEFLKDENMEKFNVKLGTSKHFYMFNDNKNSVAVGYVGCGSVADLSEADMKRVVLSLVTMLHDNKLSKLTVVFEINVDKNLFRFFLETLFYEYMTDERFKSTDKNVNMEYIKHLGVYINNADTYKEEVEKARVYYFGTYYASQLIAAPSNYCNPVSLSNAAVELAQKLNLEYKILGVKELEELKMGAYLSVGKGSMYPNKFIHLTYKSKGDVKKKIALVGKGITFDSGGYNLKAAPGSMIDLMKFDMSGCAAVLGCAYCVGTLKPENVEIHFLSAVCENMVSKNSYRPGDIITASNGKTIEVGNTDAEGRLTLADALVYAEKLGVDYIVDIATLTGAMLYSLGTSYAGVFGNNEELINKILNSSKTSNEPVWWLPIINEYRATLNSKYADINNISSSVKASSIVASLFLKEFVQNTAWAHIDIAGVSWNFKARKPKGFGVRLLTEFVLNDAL
# [22] = NIH-3T3 fibroblast cytotoxicity, dose response, cytotoxicity control, cell-based, fluorescence, Alamar Blue, secondary assay (AID 2327); assay type: functional;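 also: NIH-3T3 mouse fibroblasts cultured with fluconazole at 8 µg/mL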
# Protein Tat = target: T6, Protein Tat (Human immunodeficiency virus type 1 group M subtype B (isolate HXB2)(HIV-1), UniProt P04608); assay type: functional;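 also: tat binding to TAR RNA read out by fluorescence polarization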
# T6 sequence (P04608 whole entry): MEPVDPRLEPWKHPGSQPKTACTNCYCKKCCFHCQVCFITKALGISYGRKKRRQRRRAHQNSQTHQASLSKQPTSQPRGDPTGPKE
# [23] = fluconazole-exposed Candida albicans growth modulators – fluorescence, retest, confirmation (AID 2467); assay type: functional, cell-based
# Genome polyprotein = Genome polyprotein (dengue virus type 2, UniProt P29990); test: flavivirus cap methylation enzyme inhibition – biochemical, confirmation dose response, primary screen (AID 588689); assay type: functional
# [24] = target: Glucose-6-phosphate 1-dehydrogenase (Homo sapiens, UniProt P11413); test: inhibition of Homo sapiens G6PD, dose series – biochemical, fluorescence, selectivity assay for P. falciparum G6PD inhibitor project, dose response (AID 504792); assay type: functional
# [25] = viability loss in THP-1 monocytes – THP-1 cells, cytotoxicity control for Vif-APOBEC3G degradation inhibitor project, dose response (AID 1117359); assay type: functional; conditions: THP-1
# [26] = target: T7, Mannose-6-phosphate isomerase (Homo sapiens, UniProt P34949); test: MPI inhibition at elevated mannose 6-phosphate – biochemical, fluorescence intensity, high mannose 6-phosphate, primary screen (AID 1220)
# T7 sequence (P34949 whole entry): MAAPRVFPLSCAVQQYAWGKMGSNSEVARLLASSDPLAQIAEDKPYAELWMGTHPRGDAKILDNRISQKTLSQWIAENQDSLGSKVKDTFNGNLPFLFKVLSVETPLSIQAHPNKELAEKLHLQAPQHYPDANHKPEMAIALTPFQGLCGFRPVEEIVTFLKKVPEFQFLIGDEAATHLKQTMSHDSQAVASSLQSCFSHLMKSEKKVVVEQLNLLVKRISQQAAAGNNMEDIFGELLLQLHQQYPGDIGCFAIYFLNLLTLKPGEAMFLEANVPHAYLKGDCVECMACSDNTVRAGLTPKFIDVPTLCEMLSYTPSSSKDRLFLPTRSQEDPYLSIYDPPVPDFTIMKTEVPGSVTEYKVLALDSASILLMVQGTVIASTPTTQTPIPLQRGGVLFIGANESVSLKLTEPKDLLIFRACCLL
# [27] = Dd2 parasite growth inhibition in erythrocytes – SYBR Green, dry powder samples, set 9, dose response (AID 1159568); assay type: functional, cell-based
# [28] = target: Metabotropic glutamate receptor 7 (Homo sapiens, UniProt Q14831); test: potentiation of glutamate EC20 at mGlu7 – cell-based, calcium mobilization, Galpha15, dose response (AID 743384); assay type: functional
# Metabotropic glutamate receptor 7, sequence (Q14831 whole entry): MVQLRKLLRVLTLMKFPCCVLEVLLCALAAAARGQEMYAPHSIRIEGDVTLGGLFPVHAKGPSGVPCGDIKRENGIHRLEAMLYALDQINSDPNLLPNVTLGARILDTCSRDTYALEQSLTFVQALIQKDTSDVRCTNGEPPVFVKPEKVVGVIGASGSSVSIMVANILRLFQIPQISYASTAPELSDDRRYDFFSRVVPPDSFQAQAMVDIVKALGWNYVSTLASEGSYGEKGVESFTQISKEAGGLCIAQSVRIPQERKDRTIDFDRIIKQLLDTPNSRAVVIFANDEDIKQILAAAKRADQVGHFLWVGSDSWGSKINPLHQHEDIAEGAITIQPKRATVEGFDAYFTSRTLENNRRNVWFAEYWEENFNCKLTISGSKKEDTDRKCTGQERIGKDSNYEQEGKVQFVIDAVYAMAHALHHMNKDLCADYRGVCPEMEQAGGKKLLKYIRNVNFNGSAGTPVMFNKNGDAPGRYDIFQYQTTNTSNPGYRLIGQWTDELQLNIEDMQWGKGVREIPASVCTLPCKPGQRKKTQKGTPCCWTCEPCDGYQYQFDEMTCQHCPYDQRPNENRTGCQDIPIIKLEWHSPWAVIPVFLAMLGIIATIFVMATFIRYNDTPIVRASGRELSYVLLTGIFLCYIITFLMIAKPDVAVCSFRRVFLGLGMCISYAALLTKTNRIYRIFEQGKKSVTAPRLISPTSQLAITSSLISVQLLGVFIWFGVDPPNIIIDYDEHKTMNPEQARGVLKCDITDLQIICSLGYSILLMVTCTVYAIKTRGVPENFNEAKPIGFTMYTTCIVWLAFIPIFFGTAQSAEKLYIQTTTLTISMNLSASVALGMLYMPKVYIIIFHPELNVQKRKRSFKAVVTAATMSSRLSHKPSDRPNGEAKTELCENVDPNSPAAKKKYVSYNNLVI
# T2 sequence (Q92731 whole entry): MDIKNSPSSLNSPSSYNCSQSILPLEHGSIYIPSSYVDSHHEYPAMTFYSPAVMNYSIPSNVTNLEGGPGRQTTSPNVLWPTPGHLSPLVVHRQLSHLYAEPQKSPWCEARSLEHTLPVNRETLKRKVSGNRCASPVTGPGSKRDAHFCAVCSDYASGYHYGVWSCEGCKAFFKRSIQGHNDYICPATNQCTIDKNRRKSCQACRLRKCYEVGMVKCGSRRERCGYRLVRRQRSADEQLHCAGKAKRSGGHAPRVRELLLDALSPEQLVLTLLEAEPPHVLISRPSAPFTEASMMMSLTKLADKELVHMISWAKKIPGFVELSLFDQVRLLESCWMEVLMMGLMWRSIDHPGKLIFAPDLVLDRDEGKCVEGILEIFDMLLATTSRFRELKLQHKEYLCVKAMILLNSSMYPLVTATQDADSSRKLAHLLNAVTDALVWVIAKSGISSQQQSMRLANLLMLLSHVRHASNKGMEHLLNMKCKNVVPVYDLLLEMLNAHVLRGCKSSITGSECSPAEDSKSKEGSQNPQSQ
# Bifunctional protein GlmU, sequence (P9WMN3 whole entry): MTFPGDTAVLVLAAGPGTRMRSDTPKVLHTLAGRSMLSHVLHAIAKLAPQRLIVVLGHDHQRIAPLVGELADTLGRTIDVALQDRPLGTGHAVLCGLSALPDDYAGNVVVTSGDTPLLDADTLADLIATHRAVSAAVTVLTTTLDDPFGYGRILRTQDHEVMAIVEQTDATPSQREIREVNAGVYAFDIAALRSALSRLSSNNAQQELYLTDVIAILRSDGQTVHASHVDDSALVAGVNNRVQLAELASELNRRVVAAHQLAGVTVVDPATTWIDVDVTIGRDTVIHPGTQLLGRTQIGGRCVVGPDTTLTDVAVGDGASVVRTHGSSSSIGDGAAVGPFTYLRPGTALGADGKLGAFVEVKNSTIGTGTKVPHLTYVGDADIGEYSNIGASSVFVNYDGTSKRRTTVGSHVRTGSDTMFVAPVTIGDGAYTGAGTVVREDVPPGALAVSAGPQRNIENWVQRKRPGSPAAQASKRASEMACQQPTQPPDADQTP
# Cytochrome P450 3A4, sequence (P08684 whole entry): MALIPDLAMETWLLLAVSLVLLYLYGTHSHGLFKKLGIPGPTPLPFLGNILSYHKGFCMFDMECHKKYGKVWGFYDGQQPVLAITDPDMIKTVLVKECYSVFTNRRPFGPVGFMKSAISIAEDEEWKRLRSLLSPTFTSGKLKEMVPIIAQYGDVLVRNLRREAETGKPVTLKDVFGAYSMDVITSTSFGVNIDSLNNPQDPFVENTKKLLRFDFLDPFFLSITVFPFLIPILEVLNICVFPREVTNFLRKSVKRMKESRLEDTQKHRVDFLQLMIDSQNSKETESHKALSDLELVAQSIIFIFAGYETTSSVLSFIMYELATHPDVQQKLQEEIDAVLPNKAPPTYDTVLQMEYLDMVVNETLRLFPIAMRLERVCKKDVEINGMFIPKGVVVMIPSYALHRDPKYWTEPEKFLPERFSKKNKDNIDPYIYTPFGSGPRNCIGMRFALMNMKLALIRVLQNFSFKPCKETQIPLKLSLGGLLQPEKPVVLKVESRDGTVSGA
# Large T antigen, sequence (P03070 whole entry): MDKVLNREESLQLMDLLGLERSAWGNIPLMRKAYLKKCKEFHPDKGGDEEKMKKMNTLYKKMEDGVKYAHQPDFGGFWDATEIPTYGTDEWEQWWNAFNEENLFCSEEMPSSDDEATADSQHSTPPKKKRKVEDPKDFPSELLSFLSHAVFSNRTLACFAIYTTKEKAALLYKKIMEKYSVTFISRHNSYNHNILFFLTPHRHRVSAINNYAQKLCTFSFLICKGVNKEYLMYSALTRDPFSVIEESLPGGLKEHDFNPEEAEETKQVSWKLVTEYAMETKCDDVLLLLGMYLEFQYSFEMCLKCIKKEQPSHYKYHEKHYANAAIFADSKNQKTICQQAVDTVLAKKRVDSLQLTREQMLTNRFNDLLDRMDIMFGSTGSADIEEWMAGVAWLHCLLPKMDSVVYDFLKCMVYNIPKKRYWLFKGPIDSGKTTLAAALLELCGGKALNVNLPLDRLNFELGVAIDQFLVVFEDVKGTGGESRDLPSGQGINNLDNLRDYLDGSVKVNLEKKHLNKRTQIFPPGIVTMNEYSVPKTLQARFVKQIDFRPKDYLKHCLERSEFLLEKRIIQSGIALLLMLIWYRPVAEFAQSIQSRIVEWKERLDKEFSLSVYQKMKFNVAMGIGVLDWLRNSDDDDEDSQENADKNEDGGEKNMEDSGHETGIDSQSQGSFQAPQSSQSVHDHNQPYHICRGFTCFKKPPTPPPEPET
# Photoreceptor-specific nuclear receptor, sequence (Q9Y5X4 whole entry): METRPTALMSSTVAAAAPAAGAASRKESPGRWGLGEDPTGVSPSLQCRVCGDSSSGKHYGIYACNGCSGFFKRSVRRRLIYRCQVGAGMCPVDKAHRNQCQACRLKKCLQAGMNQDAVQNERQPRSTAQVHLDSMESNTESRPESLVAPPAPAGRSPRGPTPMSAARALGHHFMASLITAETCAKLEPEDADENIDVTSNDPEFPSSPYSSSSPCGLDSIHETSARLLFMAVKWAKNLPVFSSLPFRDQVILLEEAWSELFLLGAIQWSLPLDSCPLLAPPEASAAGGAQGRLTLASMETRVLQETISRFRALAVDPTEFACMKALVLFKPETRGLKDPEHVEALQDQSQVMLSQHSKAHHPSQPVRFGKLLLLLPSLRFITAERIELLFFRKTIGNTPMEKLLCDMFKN
# Cytochrome P450 2D6, sequence (P10635 whole entry): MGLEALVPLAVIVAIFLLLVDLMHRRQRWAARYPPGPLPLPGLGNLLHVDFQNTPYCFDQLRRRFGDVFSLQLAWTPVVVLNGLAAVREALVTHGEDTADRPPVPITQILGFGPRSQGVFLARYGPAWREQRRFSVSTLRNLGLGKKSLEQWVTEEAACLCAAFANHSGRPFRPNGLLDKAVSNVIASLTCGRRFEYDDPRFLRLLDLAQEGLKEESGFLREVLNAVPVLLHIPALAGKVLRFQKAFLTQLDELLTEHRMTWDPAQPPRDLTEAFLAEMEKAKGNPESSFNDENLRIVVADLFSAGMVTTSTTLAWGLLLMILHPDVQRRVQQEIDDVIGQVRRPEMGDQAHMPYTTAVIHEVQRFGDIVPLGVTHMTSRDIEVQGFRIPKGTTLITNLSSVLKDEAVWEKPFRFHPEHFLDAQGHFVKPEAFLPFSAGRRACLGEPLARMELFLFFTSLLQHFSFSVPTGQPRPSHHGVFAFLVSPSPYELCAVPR
# RNA-editing ligase 1, mitochondrial, sequence (P86926 whole entry): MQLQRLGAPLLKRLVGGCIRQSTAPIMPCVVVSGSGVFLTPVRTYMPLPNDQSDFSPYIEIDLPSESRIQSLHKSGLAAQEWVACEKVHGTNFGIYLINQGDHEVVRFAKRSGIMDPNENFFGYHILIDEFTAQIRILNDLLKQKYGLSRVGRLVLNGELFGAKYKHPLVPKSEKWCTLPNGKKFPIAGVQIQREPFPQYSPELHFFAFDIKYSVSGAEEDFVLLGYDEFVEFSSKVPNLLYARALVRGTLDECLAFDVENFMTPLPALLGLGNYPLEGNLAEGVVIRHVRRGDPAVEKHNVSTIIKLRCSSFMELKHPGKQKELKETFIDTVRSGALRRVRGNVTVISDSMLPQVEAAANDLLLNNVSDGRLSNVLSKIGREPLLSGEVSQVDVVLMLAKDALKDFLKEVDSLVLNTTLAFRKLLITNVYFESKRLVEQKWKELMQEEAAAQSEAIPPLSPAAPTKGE
# E3 ubiquitin-protein ligase Mdm2, sequence (Q00987 whole entry): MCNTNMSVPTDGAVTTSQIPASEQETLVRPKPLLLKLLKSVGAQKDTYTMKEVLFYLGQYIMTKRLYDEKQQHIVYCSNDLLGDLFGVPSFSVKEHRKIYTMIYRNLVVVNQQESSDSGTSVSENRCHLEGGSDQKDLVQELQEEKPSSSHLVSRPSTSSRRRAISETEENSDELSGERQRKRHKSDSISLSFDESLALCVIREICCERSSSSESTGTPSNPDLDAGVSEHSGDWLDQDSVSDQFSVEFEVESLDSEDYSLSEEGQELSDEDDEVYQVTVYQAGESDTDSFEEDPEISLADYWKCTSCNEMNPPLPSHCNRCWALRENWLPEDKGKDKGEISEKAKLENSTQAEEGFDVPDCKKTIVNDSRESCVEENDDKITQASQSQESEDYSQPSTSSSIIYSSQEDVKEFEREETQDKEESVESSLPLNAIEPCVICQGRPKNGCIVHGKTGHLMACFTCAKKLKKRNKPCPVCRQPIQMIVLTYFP
compound,measurement,setting,value
c1ccc(-c2nc(NC3CCCC3)c3ccccc3n2)cc1,IC50,[1],10 µM (active)
same,IC50,[2],21.1 µM (inactive)
same,IC50,[3],> 80 µM (inactive)
Cc1ccc(C(=O)N2CCN(c3ccccc3)CC2)cc1C,IC50,[4],> 100 µM (active)
O=C(O)c1cc(-c2ccco2)nc2ccc(Br)cc12,IC50,Large T antigen,78.6 µM (active)
same,IC50,[5],> 39.8 µM (not active)
same,IC50,Phospholipase A2,12.2 µM (active)
same,IC50,Estrogen receptor beta [6],< 23 nM (not active)
same,IC50,[7],81.9 µM (active)
same,IC50,Estrogen receptor beta [8],9.82 µM (active)
same,IC50,Cysteine protease ATG4B,9.96 µM (active)
same,IC50,Estrogen receptor,47.6 µM (not active)
same,IC50,[9],1.38 µM (active)
same,IC50,[10],> 20 µM (inactive)
same,AC50,[11],785 nM (active)
COc1ccc(OC)c(CNn2c(-c3ccccc3F)nc3ccccc3c2=O)c1,EC50,[12],85 µM (not active)
CCOC(=O)c1sc(NC(=O)c2ccc(C)o2)nc1C,EC50,[13],< 100 nM (inconclusive)
same,EC50,[14],306 nM (active)
same,EC50,[15],421 nM (active)
same,EC50,[16],541 nM (active)
same,IC50,[17],6.55 µM (active)
same,EC50,[18],793 nM (active)
same,EC50,H4,3.76 µM (active)
CCOC(=O)c1cccc2c1-c1ccccc1/C2=N/O,IC50,[19],11.5 µM (not active)
same,AC50,Cytochrome P450 3A4,28.2 µM (inconclusive)
same,AC50,Cytochrome P450 2D6,inconclusive
same,IC50,[20],7.48 µM (active)
CC/N=c1\scc(C)n1/N=C/c1ccc(O)c(O)c1O,CC50,Vero,> 40 µM (active)
same,IC50,[21],> 96.6 µM (inactive)
same,IC50,Leucine aminopeptidase,82.3 µM (active)
same,EC50,[22],> 150 µM (inactive)
same,IC50,Protein Tat,54.4 µM (inconclusive)
same,EC50,[23],> 38 µM (not active)
same,IC50,Genome polyprotein,21.4 µM (active)
same,IC50,[24],57.4 µM (inactive)
same,CC50,[25],29.6 µM (active)
same,IC50,[26],12 µM (active)
C[C@@H]1CN([C@H](C)CO)C(=O)c2cc(N(C)C)ccc2O[C@@H](C)CCCCO[C@@H]1CN(C)S(=O)(=O)c1ccc(F)cc1,AC50,[27],12.1 µM (active)
Cc1ccc(CSCC(=O)c2cc(C)n(-c3ccc(OC(F)F)cc3)c2C)cc1,EC50,[28],3.16 µM (active)
